Assay results: patent publication US20260137642A1 (CANCER PREVENTION PHARMACEUTICALS, INC., priority 2021, published 2026)

How the values were obtained:
RINm5F insulinoma cells = conditions: cited from earlier work
T cells = conditions: mice; cited from earlier work
[1] = tested on: APC-dependent intestinal tumorigenesis; conditions: mice; cited from earlier work
ODC enzyme activity = biological target: T1, ODC enzyme activity (Homo sapiens, UniProt P11926); conditions: oral, daily, humans; cited from earlier work
T1 construct: from tissue; host or cells: human epithelial tissues (in vivo, oral dosing); finding cited from the literature
T1 sequence (P11926 1-461): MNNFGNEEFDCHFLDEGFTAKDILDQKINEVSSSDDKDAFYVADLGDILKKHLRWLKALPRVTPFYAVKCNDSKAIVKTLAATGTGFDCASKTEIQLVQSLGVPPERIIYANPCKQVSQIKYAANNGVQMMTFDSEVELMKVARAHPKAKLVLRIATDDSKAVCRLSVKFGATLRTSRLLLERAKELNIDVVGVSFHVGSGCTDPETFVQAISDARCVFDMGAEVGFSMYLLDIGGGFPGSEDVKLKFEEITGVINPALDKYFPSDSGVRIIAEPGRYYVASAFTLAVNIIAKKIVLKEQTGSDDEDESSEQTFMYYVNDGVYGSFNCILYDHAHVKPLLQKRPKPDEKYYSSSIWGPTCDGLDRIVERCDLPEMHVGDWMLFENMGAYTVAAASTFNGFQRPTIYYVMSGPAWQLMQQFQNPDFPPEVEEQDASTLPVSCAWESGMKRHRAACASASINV

β cell function = conditions: mouse models including the NOD mouse; cited from earlier work
C-peptide = assay: Phase I/II trial in new onset T1D: C-peptide by 2-h MMTT; type: in vivo, human; conditions: for C-peptide area under the curve values compared to the placebo group: 6-month post-randomization visit
Description: (§1) This study was double-blind, placebo-controlled, 2:1 random assigned, phase I/II clinic trial for individuals with type 1 diabetes. The blinded dose-ranging study enrolled persons with new onset T1D with documented continued residual C-peptide production. […] After a 3 month wash-out period, the durability of effect was assessed. [table]

urinary polyamines = assay: Phase I/II trial in new onset T1D: urinary polyamines (first morning urine, HPLC); type: in vivo, human; conditions: 3 months
Description: as §1

NCCCC(N)(C(=O)O)C(F)F (stereo not shown) [eflornithine, 2,5-diamino-2-(difluoromethyl) pentanoic acid]
Insulin content and secretion (RINm5F insulinoma cells): improves insulin content and secretion | Effect on T cells (T cells): deplete T cells | APC-dependent intestinal tumorigenesis [1]: decrease APC-dependent intestinal tumorigenesis | ODC enzyme activity and polyamine contents in epithelial tissues (ODC enzyme activity): inhibits ODC enzyme activity and polyamine contents | β cell function and diabetes onset (β cell function): preserves β cell function and delays diabetes onset | C-peptide area under the curve values compared to the placebo group (C-peptide; 750 mg/m^2 dose): significantly higher | C-peptide area under the curve values compared to the placebo group (C-peptide; 1000 mg/m^2 dose): significantly higher | β cell function compared to placebo (C-peptide; at higher doses, 3-month oral course): greater β cell function compared to placebo | Change in urinary polyamines with increasing drug dose across groups (urinary polyamines; 125-1000 mg/m^2): Decreases in urinary polyamines | 3-month urinary Decarboxylated AdoMet, Least Square Means (urinary polyamines; Drug Dose 125): 133.0 µmol/g | 3-month urinary Putrescine, Least Square Means (urinary polyamines; Drug Dose 125): 127.9 µmol/g | 3-month urinary Decarboxylated AdoMet, Least Square Means (urinary polyamines; Drug Dose 250): 87.7 µmol/g | 3-month urinary Putrescine, Least Square Means (urinary polyamines; Drug Dose 250): 78.0 µmol/g | 3-month urinary Decarboxylated AdoMet, Least Square Means (urinary polyamines; Drug Dose 500): 114.3 µmol/g | 3-month urinary Putrescine, Least Square Means (urinary polyamines; Drug Dose 500): 41.8 µmol/g | 3-month urinary Decarboxylated AdoMet, Least Square Means (urinary polyamines; Drug Dose 750): 116.0 µmol/g | 3-month urinary Putrescine, Least Square Means (urinary polyamines; Drug Dose 750): 56.6 µmol/g | 3-month urinary Decarboxylated AdoMet, Least Square Means (urinary polyamines; Drug Dose 1000): 165.7 µmol/g | 3-month urinary Putrescine, Least Square Means (urinary polyamines; Drug Dose 1000): 35.7 µmol/g
